The values that follow come from PubChem BioAssay (NCI).

Test systems include CCRF-CEM leukemia; COLO 205 colon; HL-60(TB) leukemia; IGROV1 ovarian; NCI-H23 lung; RPMI-8226 leukemia; RXF 393 renal; SN12C renal; SNB-75 CNS; UACC-62 melanoma.
Common to all, as to test: NCI-60 cell line screen, 48 h

The structures appear in SMILES notation.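 The compound was tested at five concentrations on cells cultured in 96-well plates, with a 48-hour exposure period. TGI: concentration producing complete growth inhibition.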

As for `COc1ccc(Nc2ccc3ccccc3c2-c2c(O)ccc3ccccc23)cc1`, the TGI came out at 46.8 µM in the assay on CCRF-CEM leukemia; 47 µM in the assay with COLO 205 colon; 55.2 µM in the assay with HL-60(TB) leukemia; 23 µM in the assay on IGROV1 ovarian; 32.4 µM in the assay on NCI-H23 lung; 27.4 µM in the assay with RPMI-8226 leukemia. Further, the TGI is 49.8 µM in the assay with RXF 393 renal, 35.1 µM with SN12C renal, 46.2 µM in the assay with SNB-75 CNS and over 100 µM in the assay on UACC-62 melanoma.

For the compound `O=C(Nc1ccccc1C(=O)NCc1ccccc1)/C(=C/c1ccccc1)NC(=O)c1ccccc1`, the TGI in the assay on CCRF-CEM leukemia, in the assay on COLO 205 colon, in the assay with HL-60(TB) leukemia, with IGROV1 ovarian, in the assay with NCI-H23 lung and in the assay with RPMI-8226 leukemia was over 100 µM throughout. Besides, the TGI with RXF 393 renal, in the assay with SN12C renal, with SNB-75 CNS and in the assay on UACC-62 melanoma was over 100 µM throughout.

For the compound `O=C1c2c(O)cccc2-c2nn(CCNCCO)c3ccc(NCCNCCO)c1c23`, the TGI was found to be 0.0631 µM with CCRF-CEM leukemia; 1.67 µM in the assay on COLO 205 colon; 0.123 µM in the assay with HL-60(TB) leukemia; 5.8 µM in the assay with IGROV1 ovarian; 0.592 µM with NCI-H23 lung; 7.65 µM with RPMI-8226 leukemia. For the same compound, the TGI in the assay on RXF 393 renal came out at 1.37 µM; in the assay on SN12C renal, 0.454 µM; in the assay with SNB-75 CNS, 1.14 µM; in the assay on UACC-62 melanoma, 0.344 µM.

Take `C=C=C(CC(CC(=C)Br)(C(=O)OC)C(=O)OC)S(=O)(=O)c1ccccc1`: the TGI with CCRF-CEM leukemia was over 100 µM; with COLO 205 colon it was 3.26 µM; in the assay with HL-60(TB) leukemia, over 100 µM; with IGROV1 ovarian, 5.52 µM; in the assay on NCI-H23 lung, 6.33 µM; in the assay on RPMI-8226 leukemia it was 4.37 µM. Besides, the TGI in the assay on RXF 393 renal turned out to be 3.99 µM; in the assay with SN12C renal, 3.13 µM; with SNB-75 CNS it was 20.5 µM; in the assay on UACC-62 melanoma, 3.11 µM.

For `CN(C)CCCNc1ccc2nnn3c4ccc(O)cc4c(=O)c1c23`, the TGI in the assay with CCRF-CEM leukemia was 38.2 µM; with COLO 205 colon it was 15.8 µM; with HL-60(TB) leukemia, over 46.9 µM; with IGROV1 ovarian it was 17.9 µM; with NCI-H23 lung, 18.3 µM; with RPMI-8226 leukemia it was 29.6 µM. For the same compound, the TGI was found to be 1.16 µM with RXF 393 renal, 18.8 µM in the assay on SN12C renal, 20.2 µM in the assay on SNB-75 CNS and 23.7 µM in the assay with UACC-62 melanoma.

For `CN(Cc1cnc2nc(N)nc(N)c2n1)c1ccc(C(=O)NC(CO)CCCO)cc1` (stereo not given), the TGI in the assay on CCRF-CEM leukemia, with COLO 205 colon, with HL-60(TB) leukemia, in the assay on IGROV1 ovarian, in the assay on NCI-H23 lung and in the assay with RPMI-8226 leukemia was over 100 µM in each case. For the same compound, the TGI in the assay with RXF 393 renal, in the assay on SN12C renal, with SNB-75 CNS and in the assay on UACC-62 melanoma was over 100 µM throughout.

For `Cc1ccccc1-c1nc2c(C(=O)NCCN(C)C)cccc2[nH]1`, the TGI is over 100 µM with CCRF-CEM leukemia; 51.9 µM in the assay with COLO 205 colon; over 74.6 µM in the assay on HL-60(TB) leukemia; over 100 µM in the assay on IGROV1 ovarian; over 100 µM in the assay with NCI-H23 lung; 73.4 µM in the assay on RPMI-8226 leukemia. Moreover, the TGI in the assay with RXF 393 renal, in the assay on SN12C renal, in the assay on SNB-75 CNS and with UACC-62 melanoma was over 100 µM throughout.

In the case of `Nc1ccc(S(=O)(=O)Nc2nc3ccccc3nc2N2CCCCCC2)cc1`, the TGI in the assay on CCRF-CEM leukemia was over 100 µM; with COLO 205 colon, 33.4 µM; in the assay on HL-60(TB) leukemia, 52 µM; with IGROV1 ovarian, over 100 µM; in the assay on NCI-H23 lung it was 47.7 µM; in the assay on RPMI-8226 leukemia it was 42.5 µM. Besides, the TGI in the assay with RXF 393 renal was 35.5 µM; in the assay on SN12C renal, 44.9 µM; with SNB-75 CNS it was over 100 µM; in the assay with UACC-62 melanoma, 39.8 µM.

With `CCOC(=O)c1cc2c([N+](=O)[O-])c(N)ccc2s1`, the TGI with CCRF-CEM leukemia, in the assay on COLO 205 colon, in the assay on HL-60(TB) leukemia, with IGROV1 ovarian, with NCI-H23 lung and in the assay with RPMI-8226 leukemia was over 100 µM each time. The TGI in the assay on RXF 393 renal, with SN12C renal, in the assay with SNB-75 CNS and with UACC-62 melanoma was over 100 µM in each case.

With `N#Cc1cc2c(n(C3OC(CO)C(O)C(O)C3O)c1=S)CCCCCC2` (stereo not given), the TGI in the assay on CCRF-CEM leukemia, in the assay with COLO 205 colon, in the assay on HL-60(TB) leukemia, with IGROV1 ovarian, with NCI-H23 lung and with RPMI-8226 leukemia was over 100 µM in each case. Moreover, the TGI in the assay with RXF 393 renal, in the assay with SN12C renal, in the assay with SNB-75 CNS and in the assay on UACC-62 melanoma was over 100 µM throughout.

For `CC(=O)Nc1ccc(OC/C(N)=N/NC(=O)c2ccncc2)cc1`, the TGI in the assay on CCRF-CEM leukemia, in the assay on COLO 205 colon, with HL-60(TB) leukemia, with IGROV1 ovarian, in the assay on NCI-H23 lung and in the assay with RPMI-8226 leukemia was over 100 µM in each case. In addition, the TGI in the assay with RXF 393 renal, in the assay on SN12C renal, in the assay with SNB-75 CNS and in the assay on UACC-62 melanoma was over 100 µM each time.

In the case of `O=C(CCN1CCN2c3ccccc3CCC2C1)c1ccc(F)cc1` (stereo not given), the TGI in the assay with CCRF-CEM leukemia was over 100 µM; with COLO 205 colon, 44.4 µM; with HL-60(TB) leukemia, 89.6 µM; with IGROV1 ovarian it was 47.9 µM; with NCI-H23 lung, over 100 µM; with RPMI-8226 leukemia, over 100 µM. Besides, the TGI in the assay on RXF 393 renal was 43.3 µM; in the assay on SN12C renal, over 100 µM; with SNB-75 CNS, 44.8 µM; in the assay on UACC-62 melanoma, over 100 µM.

Turning to `O=C1CC(=O)n2cnc3cccc(c32)N1`, the TGI in the assay with CCRF-CEM leukemia, with COLO 205 colon, in the assay on HL-60(TB) leukemia, with IGROV1 ovarian, in the assay on NCI-H23 lung and with RPMI-8226 leukemia was over 100 µM in each case. Besides, the TGI in the assay with RXF 393 renal, with SN12C renal, in the assay on SNB-75 CNS and with UACC-62 melanoma was over 100 µM throughout.
